Target: T1, B-cell receptor CD22 (Homo sapiens, UniProt P20273)
T1 sequence (P20273 whole entry): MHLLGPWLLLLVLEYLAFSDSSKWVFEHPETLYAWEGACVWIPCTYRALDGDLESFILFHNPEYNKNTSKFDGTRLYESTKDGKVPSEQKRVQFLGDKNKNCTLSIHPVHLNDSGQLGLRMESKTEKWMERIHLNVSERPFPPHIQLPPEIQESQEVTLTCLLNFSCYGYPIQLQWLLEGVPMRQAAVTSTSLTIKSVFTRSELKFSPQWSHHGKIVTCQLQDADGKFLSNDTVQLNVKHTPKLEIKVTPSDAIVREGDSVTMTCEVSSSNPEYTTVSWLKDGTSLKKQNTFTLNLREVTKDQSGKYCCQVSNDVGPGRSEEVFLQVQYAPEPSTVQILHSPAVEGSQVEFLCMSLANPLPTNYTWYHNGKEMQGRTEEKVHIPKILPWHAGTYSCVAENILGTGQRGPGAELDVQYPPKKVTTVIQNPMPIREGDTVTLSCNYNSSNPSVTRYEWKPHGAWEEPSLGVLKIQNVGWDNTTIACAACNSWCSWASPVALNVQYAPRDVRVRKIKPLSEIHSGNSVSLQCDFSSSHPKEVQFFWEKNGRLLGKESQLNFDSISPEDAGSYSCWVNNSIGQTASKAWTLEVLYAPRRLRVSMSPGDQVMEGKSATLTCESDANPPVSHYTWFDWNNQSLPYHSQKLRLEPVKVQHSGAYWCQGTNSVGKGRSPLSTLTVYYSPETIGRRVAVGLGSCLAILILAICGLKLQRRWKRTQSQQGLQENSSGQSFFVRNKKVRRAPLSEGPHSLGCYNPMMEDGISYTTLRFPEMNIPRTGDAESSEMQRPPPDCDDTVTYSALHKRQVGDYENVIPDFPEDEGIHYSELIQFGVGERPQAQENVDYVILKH
Assay: Binding affinity to human SIGLEC2 by saturation transfer difference-titration assay

CC(=O)N[C@H]1[C@@H]([C@H](O)[C@H](O)CO)O[C@@](O[C@H]2[C@@H](O)[C@@H](CO)O[C@@H](O[C@H]3[C@H](O)[C@@H](O)[C@H](OCC[Si](C)(C)C)O[C@@H]3CO)[C@@H]2O)(C(=O)O)C[C@@H]1O[C@H]1O[C@H](CO)[C@H](O)[C@H](O[C@@H]2O[C@@H]([C@H](O)CO)[C@H](O)[C@H]2O)[C@H]1O (stereo in doubt)
Kd: 2000 µM
